The record followed here is patent publication US6265426A, “Triazole derivatives” (Hoffmann-La Roche Inc., priority 1999, dated 2001).

Where a name gives a salt, the structure may show the parent alone.

The term IC50 denotes the concentration at which inhibition is half-maximal. Low values mean greater potency in that assay, high ones weaker potency in that assay.

T1 sequence (Q00960 27-1482, other chains not shown): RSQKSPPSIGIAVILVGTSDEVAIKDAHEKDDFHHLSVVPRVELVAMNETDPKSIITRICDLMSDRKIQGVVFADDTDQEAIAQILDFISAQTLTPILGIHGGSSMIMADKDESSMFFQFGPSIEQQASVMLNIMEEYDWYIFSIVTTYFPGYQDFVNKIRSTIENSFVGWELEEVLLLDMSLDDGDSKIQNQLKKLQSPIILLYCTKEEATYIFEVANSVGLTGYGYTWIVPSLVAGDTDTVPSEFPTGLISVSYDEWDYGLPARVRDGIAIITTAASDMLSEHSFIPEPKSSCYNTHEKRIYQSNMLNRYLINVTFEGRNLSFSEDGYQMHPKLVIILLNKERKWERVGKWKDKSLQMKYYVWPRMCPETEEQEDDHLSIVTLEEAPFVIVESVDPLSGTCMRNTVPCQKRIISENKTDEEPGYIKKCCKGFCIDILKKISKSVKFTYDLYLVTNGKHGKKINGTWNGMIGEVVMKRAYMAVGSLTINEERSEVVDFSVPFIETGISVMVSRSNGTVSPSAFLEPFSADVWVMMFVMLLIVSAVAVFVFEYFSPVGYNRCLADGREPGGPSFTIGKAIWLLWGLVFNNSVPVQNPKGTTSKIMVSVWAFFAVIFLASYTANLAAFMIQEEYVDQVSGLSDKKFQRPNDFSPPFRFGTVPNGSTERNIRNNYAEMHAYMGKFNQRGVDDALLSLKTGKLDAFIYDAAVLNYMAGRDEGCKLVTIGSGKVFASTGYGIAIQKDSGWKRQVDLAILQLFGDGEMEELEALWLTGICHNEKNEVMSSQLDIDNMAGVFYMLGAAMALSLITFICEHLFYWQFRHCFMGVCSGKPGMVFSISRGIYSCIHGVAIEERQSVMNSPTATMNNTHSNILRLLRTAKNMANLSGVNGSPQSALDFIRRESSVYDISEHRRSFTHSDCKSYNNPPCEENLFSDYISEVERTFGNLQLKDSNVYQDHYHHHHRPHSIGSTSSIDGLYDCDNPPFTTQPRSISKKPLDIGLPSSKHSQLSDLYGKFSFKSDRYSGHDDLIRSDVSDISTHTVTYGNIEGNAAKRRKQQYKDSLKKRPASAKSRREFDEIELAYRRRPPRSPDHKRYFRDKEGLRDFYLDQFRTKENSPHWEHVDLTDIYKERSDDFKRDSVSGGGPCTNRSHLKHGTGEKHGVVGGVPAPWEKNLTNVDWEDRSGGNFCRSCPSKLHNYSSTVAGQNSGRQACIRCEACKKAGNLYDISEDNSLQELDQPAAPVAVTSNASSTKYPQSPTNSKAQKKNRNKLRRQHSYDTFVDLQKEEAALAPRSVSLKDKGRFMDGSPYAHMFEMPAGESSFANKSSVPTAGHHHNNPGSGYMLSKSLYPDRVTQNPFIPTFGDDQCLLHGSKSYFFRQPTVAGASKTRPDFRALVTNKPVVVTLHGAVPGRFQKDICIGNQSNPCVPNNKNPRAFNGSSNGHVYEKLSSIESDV

The assay concerns the target T1, NMDA receptor (Rattus norvegicus, UniProt P35439+Q00960).
T1 construct: Membranes were prepared by homogenization of the whole brain minus cerebellum and medulla oblongata; from tissue; host or cells: rat whole brain minus cerebellum and medulla oblongata, membranes
Briefly: [3H] Compound A (R-(R*,S*)]-α-(4-Hydroxy-phenyl)-β-methyl-4-(phenyl-methyl)-1-piperidine propanol) binding, displacement on rat brain membranes (NMDA receptor subtype). Particulars: displacement of 5 nM [3H] Compound A, rat whole brain minus cerebellum and medulla oblongata membranes, pH 7.4, 2 hours at 4° C. As for the experimental part: ^3 H R-(R*,S*)]-α-(4-Hydroxy-phenyl)-β-methyl-4-(phenyl-methyl)-1-piperidine propanol (compound A) binding
Male Fullinsdorf albino rats weighing between 150-200 g were used. Membranes were prepared by homogenization of the whole brain minus cerebellum and medulla oblongata with a Polytron (10.000 rpm, 30 seconds), in 25 volumes of a cold Tris-HCl 50 mM, EDTA 10 mM, pH 7.1 buffer. The homogenate was centrifuged at 48.000 g for 10 minutes at 4° C. The pellet was resuspended using the Polytron in the same volume of buffer and the homogenate was incubated at 37° C. for 10 minutes. After centrifugation the pellet was homogenized in the same buffer and frozen at -80° C. for at least 16 hours but not more than 10 days. For the binding assay the homogenate was thawed at 37° C., centrifuged and the pellet was washed three times as above in a Tris-HCl 5 mM, pH 7.4 cold buffer. The final pellet was resuspended in the same buffer and used at a final concentration of 200 μg of protein/ml.
Compound A binding experiments were performed using a Tris-HCl 50 mM, pH 7.4 buffer. For displacement experiments 5 nM of Compound A were used and non specific binding was measured using 10 μM of tetrahydroisoquinoline and usually it accounts for 10% of the total. The incubation time was 2 hours at 4° C. and the assay was stopped by filtration on Whatmann GF/B glass fiber filters (Unifilter-96, Packard, Zutrich, Switzerland). The filters were washed 5 times with cold buffer. The radioactivity on the filter was counted on a Packard Top-count microplate scintillation counter after addition of […] of microscint 40 (Canberra Packard S.A., Zurich, Switzerland).
The effects of compounds were measured using a minimum of 8 concentrations and repeated at least once. The pooled normalized values were analyzed using a non-linear regression calculation program which provide IC50 with their relative upper and lower 95% confidence limits (RS1, BBN, USA). The IC50 value refers to the concentration of a compound needed to give 50% inhibition, i.e., the concentration at which 50% of the ligands bonded to the recept or are displaced.
Concentrations higher than 10 μM were not tested.
With `c1cc(CN2CCCC2)cc(-c2n[nH]c(-c3ccc4ccccc4c3)n2)c1` [Example 25, 5-Naphthalen-2-yl-3-(3-pyrrolidin-1-ylmethyl-phenyl)-1H-[1,2,4]triazole hydrochloride], the concentration for half-maximal inhibition (IC50) amounted to 1000 nM. That is a single-digit micromolar value.

In the case of `Clc1ccc(-c2nc(-c3cccc(CN4CCCC4)c3)n[nH]2)cc1` [Example 49, 5-(4-Chloro-phenyl)-3-(3-pyrrolidin-1-ylmethyl-phenyl)-1H-[1,2,4]triazole hydrochloride], the IC50 came to 87 nM.

In turn, `COc1ccc(-c2nc(-c3cccc(CN4CCCC4)c3)n[nH]2)cc1` [Example 51, 5-(4-Methoxy-phenyl)-3-(3-pyrrolidin-1-ylmethyl-phenyl)-1H-[1,2,4]triazole hydrochloride] displayed an IC50 of 58 nM. This IC50 lies about 1.5-fold lower than the previous one.

As to `CCN(CC)Cc1cccc(-c2n[nH]c(-c3ccc(OC)cc3)n2)c1` [Example 52, Diethyl-{3-[5-(4-methoxy-phenyl)-1H-[1,2,4]triazol-3-yl]-benzyl}-amine hydrochloride], the IC50 amounted to 330 nM.

As to `COc1ccc(-c2nc(-c3cccc(CN)c3)n[nH]2)cc1` [Example 73, 3-[5-(4-Methoxy-phenyl)-1H-[1,2,4]triazol-3-yl]-benzylamine hydrochloride], the IC50 was 8.3 nM.
